Source: patent publication US9546358B2, “Compositions and methods for reducing background DNA amplification” (New England Biolabs, Inc., priority 2012, dated 2017)

Columns and labels:
[1] = test system: non-template amplification; experiment: LAMP assay, suppression of non-template (background) amplification, real-time SYTO-9 fluorescence; format: biochemical; conditions: for Minimum effective concentration of individual additive (Compound B) required for suppression of non-template amplification / Minimum effective concentration of individual additive (Compound A) required for suppression of non-template amplification: single additive, 100% suppression; for effect on non-template amplification: lower temperature
Procedure: (§1) • 0.4-8 ng/μl DNA polymerase (Bst 2.0-Sso7d) in LAMP Buffer [20 mM Tris, 125 mM KCl, 10 mM (NH4)2SO4, 8 mM MgSO4, 1.4 mM dNTPs, 0.1% Tween-20® (Sigma-Aldrich, St. Louis, Mo.), pH 8.8 25° C.] • 1.6 μM Forward internal primer (FIP)/Back internal primer (BIP), 0.2 μM F3/B3, 0.4 μM LoopF/LoopB • 5 ng λ DNA or none (non-template control) per reaction (25 μl)
(§2) The additive solution was added to the amplification mixture to provide a final concentration in the range of 0-40% v/v where the stock solution of additive was solubilized in water. For example, concentrations of isobutyramide in the range of 0.005 M-1.5 M, 0.01 M-1.2 M, or 0.01 M-0.7 M and N-methylformamide in the range of 0.01-2 M, 0.02 M-1.5 M, or 0.02 M-1 M (combined for example, at ratios of 10:1, 8:1, 6:1, 4:1, 2:1, 1.8:1, 1.6:1, 1.4:1, 1.2:1, 1:1 of N-methylformamide:isobutyramide) were tested at various temperatures. Other examples included in the final reaction mixture 0.02 M-1.3 M propionamide, 0.2 M-2 M Urea, 0.1 M-3.8 M formamide, 0.05 M-2 M acetamide, 0.02 M-0.5 M valeramide, 0.01 M-2 M N,N-dimethylformamide, 0.01 M-2 M N,N-diethylformamide, 0.01 M-1.8 M N,N-dimethylbutyramide.
(§3) The extent of amplification of lambda DNA (unless otherwise specified) with a LAMP amplicon size of 100-200 bases was measured by real-time fluorescence using 2 μM SYTO-9® (Life Technologies, Carlsbad, Calif.) double strand DNA intercalating dye (Nagamine, et al., Molecular and Cellular Probes, 16:223-229 (2002)) using the following primers: […]
The reduction in background fluorescence from non-template amplification was quantitatively assessed. The total reaction time for LAMP is 90 minutes. In the absence of additives, a positive signal for an amplification product of a template could be detected at about 3 minutes-15 minutes at temperatures 55° C.-72° C. and for a non-template signal at 8 minutes-30 minutes at temperatures below about 71° C. When a mixture of additives was included in the amplification mixture, a positive signal for template amplification is still seen at 3 minutes-15 minutes but no signal is seen even after 85 minutes for non-template reactions. This is recorded however as the maximum time to illustrate the synergistic effect. […] In all cases, the effect of the ratio of components of the mixture at specific molar concentrations is greater than the effect of each component small molecule individually tested at the same molar concentration and temperature (exemplified by data in Table 2).
The synergistic effect of mixing a carboxamide and N-alkylcarboxamide was examined.

lambda DNA = experiment: LAMP assay, target (template) amplification, real-time SYTO-9 fluorescence; format: biochemical, lambda phage
Procedure: as §1, §2, §3
The reduction in background fluorescence from non-template amplification was quantitatively assessed. The total reaction time for LAMP is 90 minutes. In the absence of additives, a positive signal for an amplification product of a template could be detected at about 3 minutes-15 minutes at temperatures 55° C.-72° C. and for a non-template signal at 8 minutes-30 minutes at temperatures below about 71° C. […] This is recorded however as the maximum time to illustrate the synergistic effect. […]

[2] = isobutyramide increased above 0.4 M
[3] = N-methylformamide increased above 1.0 M

Compound: CCN(C=O)CC [DEF, N,N-diethylformamide]
- Minimum effective concentration of individual additive (Compound B) required for suppression of non-template amplification ([1]; 65 °C): 0.26 M

Compound: CCCC(=O)N(C)C [DMB, N,N-dimethylbutyramide]
- Minimum effective concentration of individual additive (Compound A) required for suppression of non-template amplification ([1]; 65 °C): 0.24 M

Compound: CN(C)C=O [DMF, N,N-dimethylformamide]
- Minimum effective concentration of individual additive (Compound B) required for suppression of non-template amplification ([1]; 65 °C): 0.77 M

Compound: NC=O [FA, formamide]
- Minimum effective concentration of individual additive (Compound A) required for suppression of non-template amplification ([1]; 65 °C): 1.8 M

Compound: CC(C)C(N)=O [IBA, isobutyramide]
- suppression of non-template amplification ([1]; 0.4 M isobutyramide alone, 60 °C): ~1%
- suppression of non-template amplification ([1]; 0.4 M isobutyramide alone, 65 °C): ~10%
- effect on non-template amplification [1, 2]: did not affect the non-template amplification at lower temperature
- Minimum effective concentration of individual additive (Compound A) required for suppression of non-template amplification ([1]; 65 °C): 0.41 M
- effect on target amplification (lambda DNA; [2]): further inhibit the target amplification

Compound: CNC=O [NMF, N-methylformamide]
- suppression of non-template amplification ([1]; 1.1 M N-methylformamide alone, 60 °C): ~1%
- suppression of non-template amplification ([1]; 1.1 M N-methylformamide alone, 65 °C): ~10%
- effect on non-template amplification [1, 3]: did not affect the non-template amplification at lower temperature
- effect of increasing amounts of single additive on non-template amplification (time to threshold) ([1]; increasing amounts of 3.2 M N-methylformamide, FIG. 6A): no beneficial effect observed
- Minimum effective concentration of individual additive (Compound B) required for suppression of non-template amplification ([1]; 65 °C): 1.1 M
- effect on target amplification (lambda DNA; 1.1 M N-methylformamide, single additive, FIG. 2B): inhibited target amplification above 68 °C
- effect on target amplification (lambda DNA; [3]): further inhibit the target amplification

Compound: CCC(N)=O [PIA, propionamide]
- effect of increasing amounts of single additive on non-template amplification (time to threshold) ([1]; increasing amounts of 1.7 M propionamide, FIG. 6B): no beneficial effect observed
- Minimum effective concentration of individual additive (Compound A) required for suppression of non-template amplification ([1]; 65 °C): 0.80 M

Compound: CCCCC(N)=O [VA, valeramide]
- Minimum effective concentration of individual additive (Compound A) required for suppression of non-template amplification ([1]; 65 °C): 0.20 M
